Like-named read-outs stand apart in the source and are kept apart here.

This passage reports IC50 results from US20250154141A1 (University of Florida Research Foundation, Incorporated, priority 2021, published 2025).

Assay [1] deals with MOLT-4. Description: Cell viability assay (MTS) in MOLT-4 cells. The format is cell-based. As to conditions: Homo sapiens, MOLT-4. As for the experimental part:
(§1) Acute lymphoblastic leukemia cells (MOLT-4 and RS4; 11) were incubated with increasing concentrations of Bcl-xL degraders for 48 h. Cell viability was measured by tetrazolium-based MTS assay.

Assay [2] relates to RS4; 11. The assay can be described thus: Cell viability assay (MTS) in RS4; 11 cells. The format is cell-based. As to conditions: Homo sapiens, RS4-11. As for the experimental part:
as §1

The mark [3] stands for this setting: Table 2, 48 hr, MTS, read-out: Anti-Cancer Activity IC50 (48 hr) MOLT-4.
[4] abbreviates: Table 2, 48 hr, MTS, read-out: Anti-Cancer Activity IC50 (48 hr) RS4, 11.
Where [5] appears, read: Table 5, 48 h, read-out: MOLT-4 48 h IC50.
Setting [6] is: Table 5, 48 h, read-out: RS4 48 h IC50.

As a reminder, the IC50 is the midpoint of a concentration-inhibition curve. `Cc1ncsc1-c1ccc([C@H](C)NC(=O)[C@@H]2C[C@@H](O)CN2C(=O)[C@@H](NC(=O)CCCCCCC(=O)N2CCN(CC3(C)CCC(c4ccc(Cl)cc4)=C(CN4CCN(c5ccc(C(=O)NS(=O)(=O)c6ccc(N[C@H](CCN(C)C)CSc7ccccc7)c([N+](=O)[O-])c6)cc5)CC4)C3)CC2)C(C)(C)C)cc1` (stereo partly drawn) [Compound 34, (2S,4R)-1-((2S)-2-(8-(4-((4′-chloro-6-((4-(4-(((4-(((R)-4-(dimethylamino)-1-(phenylthio)butan-2-yl)amino)-3-nitrophenyl)sulfonyl)carbamoyl)phenyl)piperazin-1-yl)methyl)-4-methyl-2,3,4,5-tetrahydro-[1,1′-biphenyl]-4-yl)methyl)piperazin-1-yl)-8-oxooctanamido)-3,3-dimethylbutanoyl)-4-hydroxy-N—((S)-1-(4-(4-methylthiazol-5-yl)phenyl)ethyl)pyrrolidine-2-carboxamide]: the IC50 in assay [1] (setting [3]) and in assay [2] (setting [4]) was < 20 nM each time.

Regarding `Cc1ncsc1-c1ccc([C@H](C)NC(=O)[C@@H]2C[C@@H](O)CN2C(=O)[C@@H](NC(=O)CCCCCCC(=O)N2CCN(C[C@]3(C)CCC(c4ccc(Cl)cc4)=C(CN4CCN(c5ccc(C(=O)NS(=O)(=O)c6ccc(N[C@H](CCN7CCc8cccnc8C7)CSc7ccccc7)c([N+](=O)[O-])c6)cc5)CC4)C3)CC2)C(C)(C)C)cc1` [Compound 57, (2S,4R)-1-((S)-2-(8-(4-(((R)-4′-chloro-6-((4-(4-(((4-(((R)-4-(5,8-dihydro-1,7-naphthyridin-7(6H)-yl)-1-(phenylthio)butan-2-yl)amino)-3-nitrophenyl)sulfonyl)carbamoyl)phenyl)piperazin-1-yl)methyl)-4-methyl-2,3,4,5-tetrahydro-[1,1′-biphenyl]-4-yl)methyl)piperazin-1-yl)-8-oxooctanamido)-3,3-dimethylbutanoyl)-4-hydroxy-N—((S)-1-(4-(4-methylthiazol-5-yl)phenyl)ethyl)pyrrolidine-2-carboxamide], the IC50 was 100 to 500 nM in assay [1] (setting [3]) and 20 to 100 nM in assay [2] (setting [4]).

As for `Cc1ncsc1-c1ccc([C@H](C)NC(=O)[C@@H]2C[C@@H](O)CN2C(=O)[C@@H](NC(=O)CNC(=O)c2ccc(N3CCN(CCN(C)CC4(C)CCC(c5ccc(Cl)cc5)=C(CN5CCN(c6ccc(C(=O)NS(=O)(=O)c7ccc(N[C@H](CCN8CCOCC8)CSc8ccccc8)c(S(=O)(=O)C(F)(F)F)c7)cc6)CC5)C4)CC3)nc2)C(C)(C)C)cc1` (stereo partly shown) [Compound 7], the IC50 fell in the range of 100 to 500 nM in assay [1] (setting [3]) and 20 to 100 nM in assay [2] (setting [4]).

As to `Cc1ncsc1-c1ccc([C@H](C)NC(=O)[C@@H]2C[C@@H](O)CN2C(=O)[C@@H](NC(=O)CCCCCCC(=O)N2CCN(CC3(C)CCC(c4ccc(Cl)cc4)=C(CN4CCN(c5ccc(C(=O)NS(=O)(=O)c6ccc(N[C@H](CCN7CCC(O)CC7)CSc7ccccc7)c([N+](=O)[O-])c6)cc5)CC4)C3)CC2)C(C)(C)C)cc1` (stereo partly drawn) [Compound 46, (2S,4R)-1-((2S)-2-(8-(4-((4′-chloro-6-((4-(4-(((4-(((R)-4-(4-hydroxypiperidin-1-yl)-1-(phenylthio)butan-2-yl)amino)-3-nitrophenyl)sulfonyl)carbamoyl)phenyl)piperazin-1-yl)methyl)-4-methyl-2,3,4,5-tetrahydro-[1,1′-biphenyl]-4-yl)methyl)piperazin-1-yl)-8-oxooctanamido)-3,3-dimethylbutanoyl)-4-hydroxy-N—((S)-1-(4-(4-methylthiazol-5-yl)phenyl)ethyl)pyrrolidine-2-carboxamide], the IC50 in assay [1] (setting [3]) was 20 to 100 nM; in assay [1] (setting [5]) it was 55.9 nM; in assay [2] (setting [4]), < 20 nM; in assay [2] (setting [6]), 5.8 nM.

Regarding `Cc1ncsc1-c1ccc([C@H](C)NC(=O)[C@@H]2C[C@@H](O)CN2C(=O)[C@@H](NC(=O)CCCCCCC(=O)N2CCN(C[C@]3(C)CCC(c4ccc(Cl)cc4)=C(CN4CCN(c5ccc(C(=O)NS(=O)(=O)c6ccc(N[C@H](CCN7CCCCC7)CSc7ccccc7)c(S(=O)(=O)C(F)(F)F)c6)cc5)CC4)C3)CC2)C(C)(C)C)cc1` [Compound 58, (2S,4R)-1-((S)-2-(8-(4-(((R)-4′-chloro-4-methyl-6-((4-(4-(((4-(((R)-1-(phenylthio)-4-(piperidin-1-yl)butan-2-yl)amino)-3-((trifluoromethyl)sulfonyl)phenyl)sulfonyl)carbamoyl)phenyl)piperazin-1-yl)methyl)-2,3,4,5-tetrahydro-[1,1′-biphenyl]-4-yl)methyl)piperazin-1-yl)-8-oxooctanamido)-3,3-dimethylbutanoyl)-4-hydroxy-N—((S)-1-(4-(4-methylthiazol-5-yl)phenyl)ethyl)pyrrolidine-2-carboxamide], the IC50 in assay [1] (setting [3]) and in assay [2] (setting [4]) was < 20 nM throughout.

For the compound `Cc1ncsc1-c1ccc([C@H](C)NC(=O)[C@@H]2C[C@@H](O)CN2C(=O)[C@@H](NC(=O)CCCCCNC(=O)c2ccc(N3CCN(CC4(C)CCC(c5ccc(Cl)cc5)=C(CN5CCN(c6ccc(C(=O)NS(=O)(=O)c7ccc(N[C@H](CCN8CCOCC8)CSc8ccccc8)c(S(=O)(=O)C(F)(F)F)c7)cc6)CC5)C4)CC3)cn2)C(C)(C)C)cc1` (stereo partly shown) [Compound 5], the IC50 in assay [1] (setting [3]) lay within 20 to 100 nM; in assay [2] (setting [4]), 100 to 500 nM.

For the compound `Cc1ncsc1-c1ccc([C@H](C)NC(=O)[C@@H]2C[C@@H](O)CN2C(=O)[C@@H](NC(=O)CCCCCCC(=O)N2CCN(C[C@]3(C)CCC(c4ccc(Cl)cc4)=C(CN4CCN(c5ccc(C(=O)NS(=O)(=O)c6ccc(N[C@H](CCN7CCCCCC7)CSc7ccccc7)c([N+](=O)[O-])c6)cc5)CC4)C3)CC2)C(C)(C)C)cc1` [Compound 56], the IC50 in assay [1] (setting [3]) and in assay [2] (setting [4]) was < 20 nM each time.

Regarding `Cc1ncsc1-c1ccc([C@H](C)NC(=O)[C@@H]2C[C@@H](O)CN2C(=O)[C@@H](NC(=O)CNC(=O)c2ccc(N3CCN(CCN(C)CC4(C)CCC(c5ccc(Cl)cc5)=C(CN5CCN(c6ccc(C(=O)NS(=O)(=O)c7ccc(N[C@H](CCN8CCOCC8)CSc8ccccc8)c(S(=O)(=O)C(F)(F)F)c7)cc6)CC5)C4)CC3)cc2)C(C)(C)C)cc1` (stereo partly shown) [Compound 13], the IC50 in assay [1] (setting [3]) and in assay [2] (setting [4]) was 100 to 500 nM throughout.

Regarding `Cc1ncsc1-c1ccc([C@H](C)NC(=O)[C@@H]2C[C@@H](O)CN2C(=O)[C@@H](NC(=O)CCCCCCC(=O)N2CCN(CC3(C)CCC(c4ccc(Cl)cc4)=C(CN4CCN(c5ccc(C(=O)NS(=O)(=O)c6ccc(N[C@H](CCN7C[C@H]8C[C@@H]7CO8)CSc7ccccc7)c([N+](=O)[O-])c6)cc5)CC4)C3)CC2)C(C)(C)C)cc1` (stereo partly drawn) [Compound 52, (2S,4R)-1-((2S)-2-(8-(4-((6-((4-(4-(((4-(((R)-4-((1R,4R)-2-oxa-5-azabicyclo[2.2.1]heptan-5-yl)-1-(phenylthio)butan-2-yl)amino)-3-nitrophenyl)sulfonyl)carbamoyl)phenyl)piperazin-1-yl)methyl)-4′-chloro-4-methyl-2,3,4,5-tetrahydro-[1,1′-biphenyl]-4-yl)methyl)piperazin-1-yl)-8-oxooctanamido)-3,3-dimethylbutanoyl)-4-hydroxy-N—((S)-1-(4-(4-methylthiazol-5-yl)phenyl)ethyl)pyrrolidine-2-carboxamide], the IC50 in assay [1] (setting [3]) is < 20 nM; in assay [1] (setting [5]) it was 15.2 nM; in assay [2] (setting [4]), < 20 nM; in assay [2] (setting [6]), 2.8 nM.
